Format in all cases: functional
The test system of one assay is Acinetobacter baumannii. Kind of assay: Antibacterial activity against Acinetobacter baumannii ATCC 19606 after 16 to 20 hrs by broth microdilution method. The conditions noted are these: ATCC 19606 = CIP 70.34 = JCM 6841.
Assay [1] has as its system Escherichia coli. Nature of the assay: Antibacterial activity against Escherichia coli 700 expressing TolC after 16 to 20 hrs by broth microdilution method. (Dilution methods test growth across graded concentrations, often in twofold steps.)
The subject of assay [2] is Escherichia coli. Kind of assay: Antibacterial activity against TolC deficient Escherichia coli 701 after 16 to 20 hrs by broth microdilution method.
The subject of assay [3] is Pseudomonas aeruginosa. Kind of assay: Antibacterial activity against Pseudomonas aeruginosa PAO1 after 16 to 20 hrs by broth microdilution method.
The subject of assay [4] is Stenotrophomonas maltophilia. Nature of the assay: Antibacterial activity against Stenotrophomonas maltophilia ATCC 13637 after 16 to 20 hrs by broth microdilution method.
Assay [5] concerns Klebsiella pneumoniae. Nature of the assay: Antibacterial activity against Klebsiella pneumoniae 13882 after 16 to 20 hrs by broth microdilution method.
Assay [6] deals with Klebsiella pneumoniae. Kind of assay: Antibacterial activity against Klebsiella pneumoniae 700603 after 16 to 20 hrs by broth microdilution method.
The next assay deals with Bacillus subtilis. Kind of assay: Antibacterial activity against Bacillus subtilis BD54 after 16 to 20 hrs by broth microdilution method.
Another assay deals with Bacillus anthracis. Kind of assay: Antibacterial activity against Bacillus anthracis Sterne after 16 to 20 hrs by broth microdilution method.
The subject of assay [7] is Staphylococcus aureus. Nature of the assay: Antibacterial activity against Staphylococcus aureus ATCC 25923 after 16 to 20 hrs by broth microdilution method.
Assay [8] deals with Staphylococcus aureus. Kind of assay: Antibacterial activity against methicillin-resistant Staphylococcus aureus 1094 after 16 to 20 hrs by broth microdilution method.
Assay [9] has as its system Enterococcus faecalis. Nature of the assay: Antibacterial activity against Enterococcus faecalis ATCC 29212 after 16 to 20 hrs by broth microdilution method.
The test system of assay [10] is Enterococcus faecalis. Nature of the assay: Antibacterial activity against vancomycin-resistant Enterococcus faecalis ATCC 51575 after 16 to 20 hrs by broth microdilution method.
For assay [11], the system named is Burkholderia cepacia. Kind of assay: Antibacterial activity against Burkholderia cepacia 39277 after 16 to 20 hrs by broth microdilution method.
Assay [12] concerns Burkholderia cepacia. Nature of the assay: Antibacterial activity against Burkholderia cepacia 55792 after 16 to 20 hrs by broth microdilution method.
For assay [13], the system named is Pseudomonas aeruginosa. Nature of the assay: Antibacterial activity against DmexAB-oprM deletion mutant of Pseudomonas aeruginosa PAO1 after 16 to 20 hrs by broth microdilution method.
Setting [14] is: Bacillus subtilis, BD54, read-out: MIC.

What is called MIC is the least concentration at which growth counts as inhibited.

≈ marks a conversion by molar mass, not a printed value. Where only a bound is given, the exact number is not on record here.

Consider `CC(=O)OC(C(=O)Cc1c[nH]c2ccccc12)C(C)C` (centres undefined), for which the MIC (with Acinetobacter baumannii; with Escherichia coli [1]; in the assay with Escherichia coli [2]; with Pseudomonas aeruginosa [3]; in assay [4]; against Klebsiella pneumoniae [5]) was more than 80 µg/mL each time. Further, the MIC against Klebsiella pneumoniae [6], in the assay on Bacillus subtilis (setting [14]), in the assay on Bacillus anthracis, in the assay on Staphylococcus aureus [7], in the assay with Staphylococcus aureus [8] and against Enterococcus faecalis [9] was more than 80 µg/mL each time. Moreover, the MIC in the assay with Enterococcus faecalis [10], with Burkholderia cepacia [11] and in the assay with Burkholderia cepacia [12] was more than 80 µg/mL throughout.
Consider `CC(=O)OC(Cc1c[nH]c2ccccc12)C(=O)C(C)C` (centres undefined), for which the MIC (with Acinetobacter baumannii; in the assay on Escherichia coli [1]; with Escherichia coli [2]; against Pseudomonas aeruginosa [3]; in [4]; in the assay on Klebsiella pneumoniae [5]) was more than 80 µg/mL each time. The minimum inhibitory concentration (MIC) in the assay on Klebsiella pneumoniae [6] is more than 80 µg/mL; in the assay on Bacillus subtilis (setting [14]), more than 80 µg/mL; against Bacillus anthracis, more than 80 µg/mL; against Staphylococcus aureus [7], more than 90 µg/mL; with Staphylococcus aureus [8], more than 80 µg/mL; against Enterococcus faecalis [9], more than 80 µg/mL. Also, the MIC against Enterococcus faecalis [10], with Burkholderia cepacia [11] and in the assay with Burkholderia cepacia [12] was more than 80 µg/mL in each case.
For `CC(C)C(O)C(=O)Cc1c[nH]c2ccccc12` (single isomer, unassigned; (+)), the MIC against Bacillus subtilis is more than 40 µg/mL; in the assay on Enterococcus faecalis [9] it was more than 80 µg/mL; in the assay with Enterococcus faecalis [10] it was more than 80 µg/mL; in the assay with Burkholderia cepacia [11], more than 80 µg/mL; against Burkholderia cepacia [12] it was more than 80 µg/mL.
Consider `CC(C)C(=O)C(O)Cc1c[nH]c2ccccc12` (single isomer, unassigned; (+)), for which the MIC (in the assay with Acinetobacter baumannii; against Escherichia coli [1]; in the assay with Escherichia coli [2]; with Pseudomonas aeruginosa [3]; in assay [4]; in the assay on Klebsiella pneumoniae [5]) was more than 80 µg/mL throughout. The MIC in the assay with Klebsiella pneumoniae [6], in the assay with Bacillus subtilis (setting [14]), with Bacillus anthracis, in the assay on Staphylococcus aureus [7], against Staphylococcus aureus [8] and with Enterococcus faecalis [9] was more than 80 µg/mL in each case. Also, the MIC with Enterococcus faecalis [10], in the assay with Burkholderia cepacia [11] and against Burkholderia cepacia [12] was more than 80 µg/mL throughout.
As to `CC(C)C(O)C(=O)Cc1c[nH]c2ccccc12` (single isomer, unassigned; (-)), the minimum inhibitory concentration (MIC) (against Acinetobacter baumannii; in the assay with Escherichia coli [1]; against Escherichia coli [2]; in the assay with Pseudomonas aeruginosa [3]; in assay [4]; in the assay on Klebsiella pneumoniae [5]) was more than 80 µg/mL each time. The MIC against Klebsiella pneumoniae [6], with Bacillus subtilis (setting [14]), in the assay on Bacillus anthracis, in the assay with Staphylococcus aureus [7] and with Staphylococcus aureus [8] was more than 80 µg/mL each time.
For the compound `O=C(O)c1cn(C2CC2)c2cc(N3CCNCC3)c(F)cc2c1=O` [CIPROFLOXACIN], the MIC against Acinetobacter baumannii came out at 1.25 µg/mL (≈ 3.77 µM); against Pseudomonas aeruginosa [3], 0.313 µg/mL (≈ 0.945 µM); with Pseudomonas aeruginosa [13], 20 µg/mL (≈ 60.4 µM); in [4], 0.313 µg/mL (≈ 0.945 µM); with Klebsiella pneumoniae [5], 0.078 µg/mL (≈ 0.235 µM); against Klebsiella pneumoniae [6] it was 0.313 µg/mL (≈ 0.945 µM). Besides, the minimum inhibitory concentration (MIC) in the assay with Bacillus subtilis (setting [14]) worked out at 0.078 µg/mL (≈ 0.235 µM); in the assay with Staphylococcus aureus [7] it was 469 µg/mL (≈ 1420 µM); against Staphylococcus aureus [8] it was 20 µg/mL (≈ 60.4 µM); against Enterococcus faecalis [9], 1.9 µg/mL (≈ 5.73 µM); in the assay on Enterococcus faecalis [10], 0.625 µg/mL (≈ 1.89 µM); with Burkholderia cepacia [11], 0.078 µg/mL (≈ 0.235 µM). In the assay with Burkholderia cepacia [12], inhibition of growth (MIC) required 0.039 µg/mL (≈ 0.118 µM).

The values above are taken from ChEMBL document CHEMBL1268874, “A concise, total synthesis and antibacterial evaluation of 2-hydroxy-1-(1H-indol-3-yl)-4-methylpentan-3-one” (2010).
